Measured values from patent US10597388B2, “Pyridazinone herbicides” (FMC CORPORATION, priority 2014, dated 2020).

How the values were obtained:
Assay in all cases: Test D controlled growth environment herbicide test, pre- and postemergence
Format in all cases: in vivo
[1] = system: barley, spring (spring barley, Hordeum vulgare)
Outline: (§1)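 Rating is visual, 0–100 scale (100 = complete control), made against untreated plants 14–21 d after treatment in controlled growth conditions. Postemergence sprays went onto 1- to 4-leaf plants in peat medium; preemergence sprays onto silt loam after sowing; formulation included a surfactant.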

[2] = system: barley, winter (winter barley, Hordeum vulgare)
Outline: as §1

[3] = system: bluegrass (annual bluegrass, Poa annua)
Outline: as §1

[4] = system: bromegrass, downy (downy bromegrass, Bromus tectorum)
Outline: as §1

[5] = system: canarygrass (Phalaris minor)
Outline: as §1

[6] = system: chamomile (scentless chamomile, Matricaria inodora)
Outline: as §1

[7] = system: foxtail, green (green foxtail, Setaria viridis)
Outline: as §1

[8] = system: galium (catchweed bedstraw, Galium aparine)
Outline: as §1

kochia (Kochia scoparia) = system: kochia (Kochia scoparia)
Outline: as §1

[9] = system: lambsquarters (Chenopodium album)
Outline: as §1

[10] = system: mustard, wild (wild mustard, Sinapis arvensis)
Outline: as §1

[11] = system: oat, wild (wild oat, Avena fatua)
Outline: as §1

[12] = system: speedwell (bird's-eye speedwell, Veronica persica)
Outline: as §1

[13] = Postemergence, 31 g ai/ha, scale 0 to 100 (0 no effect, 100 complete control)
[14] = Postemergence, 125 g ai/ha, visual rating on scale 0 (no effect) to 100 (complete control), 14 to 21 d
[15] = Postemergence, 250 g ai/ha, scale 0 to 100 (0 no effect, 100 complete control)
[16] = Preemergence, 62 g ai/ha, scale 0 to 100 (0 no effect, 100 complete control)
[17] = Preemergence, 125 g ai/ha, scale 0 to 100 (0 no effect, 100 complete control)
[18] = Preemergence, 250 g ai/ha, scale 0 to 100 (0 no effect, 100 complete control)
[19] = postemergence, 62 g ai/ha, scale 0 to 100, 0 no effect, 100 complete control

COc1nn(C)c(=O)c(-c2c(C)ccc3ccccc23)c1OC(=O)OC(C)C [Compound 36]
55: Plant response rating, Bromegrass, Downy [4, 14] | Plant response rating, Canarygrass [5, 14]
10: Plant response rating, Barley, Spring [1, 15] | Plant response rating, Barley, Winter [2, 15] | Bluegrass plant response rating [3, 13] | Plant response rating, Bluegrass [3, 17] | Bromegrass, Downy plant response rating [4, 13] | Plant response rating, Bromegrass, Downy [4, 17]
100: Plant response rating, Chamomile [6, 14] | Plant response rating, Chamomile [6, 15] | Galium plant response rating [8, 13] | Plant response rating, Galium [8, 14] | Plant response rating, Galium [8, 15] | Plant response rating, Galium [8, 19] | Plant response rating, Kochia (kochia (Kochia scoparia); [14]) | Plant response rating, Kochia (kochia (Kochia scoparia); [15]) | Plant response rating, Lambsquarters [9, 14] | Plant response rating, Lambsquarters [9, 15] | Mustard, Wild plant response rating [10, 13] | Plant response rating, Mustard, Wild [10, 14] | Plant response rating, Mustard, Wild [10, 15] | Plant response rating, Mustard, Wild [10, 19] | Plant response rating, Speedwell [12, 14] | Plant response rating, Speedwell [12, 15] | Plant response rating, Speedwell [12, 16] | Plant response rating, Speedwell [12, 17] | Plant response rating, Speedwell [12, 18]
75: Plant response rating, Foxtail, Green [7, 18] | Plant response rating, Galium [8, 17] | Plant response rating (scale of 0 to 100), Lambsquarters ([9]; Preemergence, 31 g ai/ha) | Plant response rating, Lambsquarters [9, 17] | Plant response rating, Oat, Wild [11, 17]
20: Plant response rating, Bromegrass, Downy [4, 19] | Plant response rating, Galium [8, 16]
60: Plant response rating, Kochia (kochia (Kochia scoparia); [18]) | Speedwell plant response rating [12, 13]
15: Plant response rating, Bluegrass [3, 16] | Bluegrass plant response rating [3, 18] | Plant response rating, Bluegrass [3, 19] | Canarygrass plant response rating [5, 13]
45: Plant response rating, Canarygrass [5, 16] | Plant response rating (scale of 0 to 100), Foxtail, Green ([7]; Preemergence, 31 g ai/ha) | Plant response rating, Foxtail, Green [7, 19] | Plant response rating, Kochia (kochia (Kochia scoparia); [17]) | Plant response rating (scale of 0 to 100), Mustard, Wild ([10]; Preemergence, 31 g ai/ha) | Plant response rating, Oat, Wild [11, 16]
40: Plant response rating, Bluegrass [3, 14] | Plant response rating, Canarygrass [5, 17] | Plant response rating, Canarygrass [5, 19]
5: Plant response rating, Barley, Winter [2, 14]
95: Chamomile plant response rating [6, 13] | Plant response rating, Chamomile [6, 19] | Plant response rating, Kochia (kochia (Kochia scoparia); [19]) | Lambsquarters plant response rating [9, 13] | Plant response rating, Lambsquarters [9, 16] | Plant response rating, Lambsquarters [9, 18] | Plant response rating, Lambsquarters [9, 19] | Plant response rating, Oat, Wild [11, 15] | Plant response rating (scale of 0 to 100), Speedwell ([12]; Preemergence, 31 g ai/ha)
0: Plant response rating, Barley, Spring [1, 13] | Plant response rating, Barley, Spring [1, 14] | Plant response rating (scale of 0 to 100), Barley, Spring ([1]; Preemergence, 31 g ai/ha) | Plant response rating, Barley, Spring [1, 16] | Plant response rating, Barley, Spring [1, 17] | Barley, Spring plant response rating [1, 18] | Plant response rating, Barley, Spring [1, 19] | Plant response rating, Barley, Winter [2, 13] | Plant response rating (scale of 0 to 100), Barley, Winter ([2]; Preemergence, 31 g ai/ha) | Plant response rating, Barley, Winter [2, 16] | Plant response rating, Barley, Winter [2, 17] | Barley, Winter plant response rating [2, 18] | Plant response rating, Barley, Winter [2, 19] | Plant response rating (scale of 0 to 100), Bluegrass ([3]; Preemergence, 31 g ai/ha) | Plant response rating (scale of 0 to 100), Bromegrass, Downy ([4]; Preemergence, 31 g ai/ha) | Plant response rating, Bromegrass, Downy [4, 16] | Plant response rating (scale of 0 to 100), Canarygrass ([5]; Preemergence, 31 g ai/ha) | Plant response rating (scale of 0 to 100), Galium ([8]; Preemergence, 31 g ai/ha) | Plant response rating (scale of 0 to 100), Kochia (kochia (Kochia scoparia); Preemergence, 31 g ai/ha)
70: Plant response rating, Foxtail, Green [7, 17]
80: Plant response rating, Canarygrass [5, 15] | Plant response rating, Foxtail, Green [7, 14] | Plant response rating, Oat, Wild [11, 19]
25: Plant response rating, Foxtail, Green [7, 16] | Plant response rating, Kochia (kochia (Kochia scoparia); [16])
65: Plant response rating, Bromegrass, Downy [4, 15] | Plant response rating, Canarygrass [5, 18]
35: Plant response rating, Bluegrass [3, 15] | Plant response rating, Bromegrass, Downy [4, 18] | Foxtail, Green plant response rating [7, 13] | Oat, Wild plant response rating [11, 13] | Plant response rating (scale of 0 to 100), Oat, Wild ([11]; Preemergence, 31 g ai/ha)
90: Plant response rating, Foxtail, Green [7, 15] | Plant response rating, Mustard, Wild [10, 18] | Plant response rating, Speedwell [12, 19]
85: Plant response rating, Galium [8, 18] | Kochia plant response rating (kochia (Kochia scoparia); [13]) | Plant response rating, Mustard, Wild [10, 16] | Plant response rating, Mustard, Wild [10, 17] | Plant response rating, Oat, Wild [11, 14] | Plant response rating, Oat, Wild [11, 18]
